Source: patent publication US12582809B2, “Treatment of a disease of the gastrointestinal tract with a PDE4 inhibitor” (BT Bidco, Inc., priority 2018, dated 2026)

Columns and labels:
[1] = parameters: species or system Yorkshire-Cross farm swine; details: in vivo
Method: The primary objective of this study was to compare the tissue, plasma, rectal sample, and GI content pharmacokinetics of tacrolimus through oral versus intra-cecal ingestible device delivery in normal Yorkshire-Cross farm swine.
(§1) No further randomization procedure was employed.
Animals in Group 1 received an ingestible device containing 0.8 mL of vehicle solution (80% alcohol, 20% HCO-60). Animals in Group 2 received orally […] liquid formulation of tacrolimus at 4 mg/0.8 mL per animal (Prograf: 5 mg/mL). Animals in Group 3 received intra-cecally an ingestible device containing tacrolimus at 1 mg in 0.8 mL per ingestible device. Animals in Group 4 received intra-cecally an ingestible device containing tacrolimus at 2 mg in 0.8 mL per ingestible device. Animals in Group 5 received intra-cecally an ingestible device containing tacrolimus at 4 mg in 0.8 mL per ingestible device. To control for potential confounding effects of the surgery, all groups fast on Day −11 at least 24 hr before being subjected to anesthesia followed by surgical placements of a cecal port by a veterinary surgeon at Day −10. All animals were fasted for at least 12 hr prior to dosing on Day 1. Animals were dosed via either intra-cecal dosing (IC) or oral dosing (PO) at Day 1 (between 6-8 p.m.). All animals resumed feeding at approximately 4 hours after dose (11-12 p.m. after dosing).
Animals in Group 1 (Vehicle Control) were administered a single intra-cecal ingestible device containing 0.8 mL Vehicle solution (80% alcohol, 20% castor oil (HCO-60) on Day 1. On Day −10 the animals were anesthetized, and a veterinary surgeon surgically placed an intra-cecal port in each animal. On Day 1, each animal was placed into a sling then a single intra-cecal ingestible device containing 0.8 mL vehicle solution (80% alcohol, 20% castor oil (HCO-60)) is introduced by the veterinary surgeon into the cecum via the cecal port in each animal. Following ingestible device placement, the animals were removed from the slings and placed back into their pens with water. All animals resumed feeding at approximately 4 hours after dose. […] A total of 60 samples were collected.
Approximately 200˜400 mg of rectal content were collected, if available, with a fecal swab (Copan Diagnostics Nylon Flocked Dry Swabs, 502CS01). The fecal swab was pre-weighed and weighed after collection in the collection tube (Sterile Tube and Cap No Media, PFPM913S), and the sample weight was recorded. The fecal swab was broken via the breakpoint, and was stored in the collection tube, and immediately frozen at −70° C. […] Immediately following euthanasia, tissue was collected.
For tissue necropsy, small intestine fluid and cecal fluid were collected separately from all the animals into two separate square plastic bottles, and stored at −20° C. The length and diameter of the cecum and the colon was measured from one animal in each group and recorded for reference. Tissues were collected for pharmacokinetic analyses and include mesenteric lymph nodes, a Peyer's Patch, and five gastrointestinal sections, including cecum, proximal colon, transverse colon, distal colon, and rectum. All samples were weighed, and the tissue sample weights were recorded. In each of the five gastrointestinal sections, tissue samples were collected in three different areas where the mucosal surface was visible and not covered by luminal content by using an 8.0-mm punch biopsy tool. Around 3 grams of the total punched sample were collected into a pre-weighed 15-mL conical tube, and the tissue weight was recorded. Three mesenteric lymph nodes were collected from different areas and weighed. At least one Peyer's Patch was collected and weighed.
Luminal contents were collected for pharmacokinetic analyses from the surface of the tissue from each of five gastrointestinal sections: cecum, proximal colon, transverse colon, distal colon, and rectum (total of 75). […]

[2] = Pharmacokinetic study of oral vs intra-cecal administration of tacrolimus (Example 13); parameters: species or system Yorkshire-Cross farm swine; details: in vivo, 0.09 mg/kg
Text: as §1

[3] = female, Yorkshire-Cross, pig, po, 12 h

- exposure AUC [1]: < 2000-12 ng·h/mL
- luminal content concentration, distal colon, IC capsule vs PO [1]: Significantly higher
- luminal content concentration, spiral colon, IC capsule vs PO [1]: Significantly higher
- luminal content concentration, transverse colon, IC capsule vs PO [1]: Significantly higher
- tissue concentration, spiral colon, IC capsule vs PO [1]: Significantly higher
- tissue concentration, transverse colon, IC capsule vs PO [1]: Significantly higher
- level of tacrolimus detected in tissue ([1]; po): No measurable level
- Kp at 12 h ([2]; female, Yorkshire-Cross, pig, po): 0
- Ratio Tissue(mean) (ng/g)/Trough(12 hr) (ng/mL), Cecum [2, 3]: 0
- Ratio Tissue(mean) (ng/g)/Trough(12 hr) (ng/mL), Distal Colon [2, 3]: 0
- Ratio Tissue(mean) (ng/g)/Trough(12 hr) (ng/mL), Proximal Colon [2, 3]: 0
- Ratio Tissue(mean) (ng/g)/Trough(12 hr) (ng/mL), Transverse colon [2, 3]: 0
- Trough (12 hr) ([2]; female, Yorkshire-Cross, swine, po, 12 h): 0.568 ng/mL
- concentration at 12 h ([2]; female, Yorkshire-Cross, swine, po, Trough (12 hr)): 0.568 ± 0.291 ng/mL
- AUC0-12 hours in the blood, intra-cecal vs oral [2]: higher
- mean concentration in the blood, intra-cecal vs oral [2]: higher
SMILES: C=CC[C@@H]1/C=C(\C)C[C@H](C)C[C@H](OC)[C@H]2O[C@@](O)(C(=O)C(=O)N3CCCC[C@H]3C(=O)O[C@H](/C(C)=C/[C@@H]3CC[C@@H](O)[C@H](OC)C3)[C@H](C)[C@@H](O)CC1=O)[C@H](C)C[C@@H]2OC [tacrolimus]
